# Laboratory results from patent US9051351B2, “Hepatocyte growth factor mimics as therapeutic agents” (Washington State University, priority 2011, dated 2015).
# Entries after “also recorded” stand apart in the source; their conditions may differ. Structures can show the parent of a compound that is named as a salt. Where two headings read alike, the source gives them in different places. Where a SMILES comes first, the peptide text is derived from it. [ ]: non-standard residue; d: D form. dNle = CCCC[C@@H](N)C(=O)O; Nle = CCCC[C@H](N)C(=O)O; GABA = NCCCC(=O)O
# How the values were obtained:
# [1] = Serum metabolism of peptides in rat serum; format: in vitro ADME; conditions: for half-life at 500 µg/mL: male, Sprague Dawley, rat, serum
# Description: Four month old male Sprague Dawley rats were used as the blood source for the metabolism studies. Blood was collected from left/right jugular veins of the rats using sterile catheters. After a 30 minute incubation on ice, the blood was centrifuged at 1000 rpm for 15 min to separate the serum. Serum was then transferred to clean tubes and stored at −20° C. until use.
# Except for dihexa all drug solutions were prepared in HPLC grade water at 5 mg/ml. Stock drugs were kept in powder form and stored at −20° C. Serum metabolism experimental procedure and analysis. Rat blood serum samples were pre-equilibrated at 37° C. and then 10 μL (50 μg) of each drug solution was added to 90 μL of rat serum in 1.5 mL Eppendorf tube maintained at 37° C. At specified time intervals, metabolism was terminated by precipitating proteins with the addition of 1 ml of a solution of acetonitrile (ACN) and acetic acid (9:1, v/v). The terminated reaction mixture was stored in refrigerator (5° C.) overnight and centrifuged (14,000 rpm) for 30 min to remove precipitated proteins. The separated supernatant was dried in vacuum concentrator. The dried samples were reconstituted using 200 μL HPLC mobile phase (10% v/v ACN in water), vortexed briefly, and subjected to HPLC separation and analysis. A serum blank experiment to detect any interfering peaks in the HPLC chromatogram was performed by in an identical manner except that no drug was added. Zero time values for each drug candidate were established by first treating the serum with ACN, processing the sample as described above, adding drug, and then performing HPLC analysis.
# The degradation rate of drug was determined by measuring the decrease in area under curve (AUC) at the retention time of drug over time. The AUC obtained from the zero time experiment was considered to represent the “100%” drug concentration and was used to determine the decreased drug concentration at each specified time interval. The semi-logarithmic plot of drug concentration vs. time was generated to determine degradation kinetic constant (k) of the tested drug. The half-life of drug was (t1/2) was calculated by 0.693/k.
# Analysis of samples was performed using an HPLC system. The system consisted of a communications bus module, pumps, and a photodiode array detector. Separation was achieved using a C18 (250 mm×4.6 mm id., 5 μm particle size) reverse phase column. The column temperature was set at 40° C. The mobile phase consisted of a mixture of ACN and water with 0.1% TFA and was degassed by ultrasonication. Samples were introduced by manual mode with an injection volume of 250 μL. The drug was eluted with a flow rate of 1 mL/min and detected by PDA detector at […] wavelengths of 215 and 280 nm.
# scopolamine treated rats = assay: Morris water maze, scopolamine amnesia model; format: in vivo, rat; conditions: for mean latency to find the pedestal: icv, Dihexa, Hinge 300 pmol, scopolamine 70 nmol
# Description: Swim speed was determined from these values.
# hippocampal neurons = assay: Dendritic spine counts (spinogenesis) in mRFP-β-actin transfected dissociated hippocampal neurons; format: cell-based, rat; conditions: dose-response; 10^-8 and 10^-10 M
# Description: Hippocampal neurons (2×10^5 cells per square cm) were cultured from P1 Sprague Dawley rats on plates coated with poly-L-lysine from Sigma (St. Louis, Mo.; molecular weight 300,000). […] Each experiment was repeated at least three times using independent culture preparations. […] Hippocampal neurons (2×10^5 cells per square centimeter) were cultured from P1-2 Sprague Dawley rats on plates coated with poly-L-lysine from Sigma (St. Louis, Mo.; molecular weight 300,000). Hippocampal neurons were maintained in Neurobasal A media from Invitrogen (Carlsbad, Calif.) supplemented with B27 from Invitrogen, 0.5 mM L-glutamine, and […] cytosine-D-arabinofuranoside from Sigma added at 2 days in vitro. Hippocampal neurons were then cultured a further 3-7 days, at which time they were either transfected or treated with various pharmacological reagents as described in the text or figure legends. Neurons were transfected with mRFP-β-actin on day in vitro 6 […] using LipofectAMINETM 2000 (Invitrogen) according to the manufacturer's protocol. […] On DIV7 the cells were treated with vehicle (H20) or peptides (as described in the text) added to media. […] Five 50 μm long segments of dendrite from at least 10 neurons per data point were analyzed for each data point reported. Each experiment was repeated at least three times using independent culture preparations. […] A target sequence for c-Met was designed using RNAi central design program (see the website located at […].edu/). The target sequence […] NO: 2) was inserted into pSUPER vector (Oligoengine, Seattle Wash.) which drives endogenous production of shRNA under the H1 promoter. The shRNA was transfected into cells using the lipofectamine method described above. Verification of receptor knockdown was done by creating a c-[…]-Myc tagged gene product using the Gateway cloning system (Invitrogen). The Met protein coding sequence was cloned from rat whole brain cDNA using primers obtained from Integrated DNA Technologies, Inc. The amplified product was gel purified and a band corresponding to 190 kDa band excised and cloned into a […] destination vector (Gateway). Hippocampal neurons (2×10^5 cells per square cm) were cultured from P1 Sprague Dawley rats on plates coated with poly-L-lysine from Sigma (St. Louis, Mo.; molecular weight […]).
# [2] = rat serum, 37° C., Mean +/− SD, N = 3, read-out: Half-Life (min), serum stability
compound,measurement,setting,value
CCCC[C@@H](N)C(=O)N[C@@H](Cc1ccc(O)cc1)C(=O)N[C@H](C(=O)O)[C@@H](C)CC [D-Nle-Tyr-Ile] (H-[dNle]-Tyr-Ile-OH),half-life at 500 µg/mL,[1]; [2],225 min
CC[C@H](C)[C@H](NC(=O)[C@H](Cc1ccc(O)cc1)NC(=O)CCCN)C(=O)O [GABA-Tyr-Ile] (H-[GABA]-Tyr-Ile-OH; N-terminus and C-terminus assumed),"time spent in the target quadrant, day 9 probe trial","scopolamine treated rats; scopolamine icv 70 nmol, analog icv 1 nmol",different than all the other treated groups
same,latency to find the submerged platform in the Morris water maze,"scopolamine treated rats; scopolamine icv 70 nmol, analog icv 1 nmol, 8 days",exhibited the best performance among the compound treated groups; also recorded: not significantly different than the vehicle control group
same,"time spent in the target quadrant, day 9 probe trial","scopolamine treated rats; scopolamine icv 70 nmol, analog icv 1 nmol, listed as GABA-Tyr",superior to all the other compound treated groups
same,"spine numbers, stabilized AngIV analogs (FIG. 31)",hippocampal neurons,did not appear to be the most potent generator of new dendritic spines
same,half-life at 500 µg/mL,[1]; [2],946 min
CCCC[C@H](NC(C)=O)C(=O)N[C@@H](Cc1ccc(O)cc1)C(=O)N[C@H](C(=O)N[C@@H](Cc1c[nH]cn1)C(=O)O)[C@@H](C)CC [N-acetyl-Nle-Tyr-Ile-His] (Ac-[Nle]YIH-OH),half-life at 500 µg/mL,[1]; [2],115 min
"CCCC[C@H](N)C(=O)N[C@@H](Cc1ccc(O)cc1)C(=O)N[C@H](C(=O)N[C@@H](Cc1cnc[nH]1)C(=O)N1CCC[C@H]1C(=O)N[C@@H](Cc1ccccc1)C(=O)O)[C@@H](C)CC [Nle1-AngIV, Norleucine-YIHPF, reference compound] (H-[Nle]YIHPF-OH)",half-life at 500 µg/mL,[1]; [2],1.42 min
same,half-life at 500 µg/mL,[1]; read-out: t1/2 in rat serum,1.4 min
same,"Half-Life (min), serum stability","[1]; rat serum, 37° C., Mean +/− SD, N = 3",less than two minutes
CCCC[C@H](N)C(=O)N[C@@H](Cc1ccc(O)cc1)C(=O)N[C@H](C(=O)N[C@@H](Cc1c[nH]cn1)C(N)=O)[C@@H](C)CC [Nle-Tyr-Ile-His-NH2] (H-[Nle]YIH-NH2),half-life at 500 µg/mL,[1]; [2],23 min
"CN1[C@@H]2C[C@@H](OC(=O)[C@H](CO)c3ccccc3)C[C@H]1[C@@H]1O[C@@H]12 [scopolamine, Scopolamine hydrobromide, reference compound]",mean latency to find the pedestal,scopolamine treated rats; day one of training,114.7 s
same,mean latency to find the pedestal,scopolamine treated rats; final day of training (day 8),84.8 s
same,mean latency to find the pedestal,scopolamine treated rats; fourth day of training,102.4 s
